Assay results from paper PMC11837497, “A novel FadL family outer membrane transporter is involved in the uptake of polycyclic aromatic hydrocarbons” (Applied and Environmental Microbiology, 2025).

Target: T1, PadL (NpPadL) (Novosphingobium pentaromativorans, UniProt G6EAN6)
T1 construct: gene NSU_1434; padL expressed from pET-28b (T7, IPTG) in E. coli BL21 cells; also pHGE-Ptac complementation of delta-padL US6-1; signal peptide (residues 1-45) removed only in the model
T1 sequence (G6EAN6 46-450): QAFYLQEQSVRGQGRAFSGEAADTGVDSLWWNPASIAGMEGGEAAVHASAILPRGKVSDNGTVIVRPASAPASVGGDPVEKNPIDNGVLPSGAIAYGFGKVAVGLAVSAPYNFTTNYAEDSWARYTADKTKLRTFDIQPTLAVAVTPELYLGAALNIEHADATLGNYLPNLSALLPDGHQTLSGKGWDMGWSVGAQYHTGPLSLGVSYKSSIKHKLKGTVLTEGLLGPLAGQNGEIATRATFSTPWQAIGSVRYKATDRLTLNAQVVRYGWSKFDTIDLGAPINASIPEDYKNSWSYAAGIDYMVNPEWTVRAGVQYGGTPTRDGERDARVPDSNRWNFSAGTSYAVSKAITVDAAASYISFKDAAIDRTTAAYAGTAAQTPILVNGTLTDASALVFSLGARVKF
Experiment: uptake by intact cells, confocal fluorescence of intracellular phenanthrene
Type: cell-based
Details: E. coli BL21/pET28b-padL, LB medium, 200 mg/L phenanthrene, IPTG induction, 37 °C

c1ccc2c(c1)ccc1ccccc12 [phenanthrene]
uptake by intact cells, confocal fluorescence of intracellular phenanthrene: E. coli BL21 can be endowed with an ability to assimilate phenanthrene after heterologous expression of PadL
